Test results: PMC10945480 (Journal of Medicinal Chemistry, 2024)

What was measured:
[1] = tested on: washed human platelets; experiment: Collagen-induced platelet aggregation; format: cell-based; conditions: Platelet; washed human platelets, collagen (5 μg/mL)
Experimental: (§1) The antiplatelet effects of the JUG derivatives were evaluated by measuring human platelet aggregation, which can be regulated by cell surface PDI. Platelet aggregation was induced with platelet activators U46619 (a mimetic of thromboxane A2) and collagen (binding to GPVI).
(§2) Washed human platelets were prepared from acid citrate dextrose-anticoagulated blood of healthy human volunteers as described previously.[73] The study was approved by the Institutional Review Board of Kaohsiung Medical University, and informed consent was obtained from every volunteer. Platelet aggregation was measured by using a turbidimetric aggregometer (Chrono-Log Co., USA) under stirring conditions (1200 rpm) at 37 °C. The extent of platelet aggregation was measured as the maximal increase of light transmission after the addition of the stimulators U46619 and collagen.[73] In the TCIPA assay, platelet aggregation was induced by A549 (1 × 10^4 cells/mL), MDA-MB-231 (1 × 10^2 cells/mL), or RPMI8226 (1 × 10^5 cells/mL) cancer cells in the presence of 0.375% plasma.[74]

[2] = Parallel artificial membrane permeability assay (PAMPA); conditions: 50 μM, 3 h
Experimental: 1. Parallel artificial membrane permeability assay (PAMPA). […]
evolution instruments from pION Inc. In the PAMPA assay, a set of sandwich plates consists of a 96-well microtiter donor plate at the bottom and a 96-well filter acceptor plate on the top from […]
The stock solutions of samples were prepared at 10 mM concentrations in DMSO and stored at 0 ℃ before use. Before being added to a 96-well filter plate, the stock solution was diluted first with buffer to achieve a final sample concentration of 50 μM and to reduce the DMSO concentration below 1% (v/v). Each well of the 96-well donor plate was filled with a 200 μL diluted sample solution (50 μM), and the 96-well filter acceptor plate was then wetted with a 5 μL 2% w/v dioleyoylphosphatidylcholine (DOPC) in n-dodecane and subsequently placed on the donor wells.
Immediately, the acceptor wells were filled with 200 μL of buffer solution and the PAMPA plate sandwich was sealed and incubated at 25 ℃ for 3 h. After reaching the permeation time, the PAMPA plate sandwich was separated and transferred to 96-well UV plates respectively. The amounts of drugs in both the donor and acceptor compartments were measured by comparing the experimental spectra with the UV spectrum (220∼400 nm) obtained from reference standards.

[3] = tested on: breast cancer MDA-MB-231; experiment: Cell viability, resazurin assay, MDA-MB-231; conditions: Homo sapiens, MDA-MB-231, 24 h, read-out: MDA-MB-231 IC50
Experimental: (§3) Cells were maintained in a humidified incubator at 37 °C in 5% CO2, and cell viability was determined with the resazurin assay (Cayman Chemical, USA) after the incubation with compounds for indicated concentrations and times or DMSO as control.[72]

[4] = tested on: glioma U87; experiment: Cell viability, resazurin assay, U87; conditions: Homo sapiens, 24 h, read-out: U87 IC50
Experimental: as §3

[5] = tested on: lung cancer A549; experiment: Cell viability, resazurin assay, A549; conditions: Homo sapiens, A549, 24 h, read-out: A549 IC50
Experimental: as §3

[6] = molecular target: purified human recombinant PDI (rPDI) (Homo sapiens, UniProt P07237); experiment: Recombinant PDI reductase activity (Di-E-GSSG assay); conditions: read-out: rPDI IC50; human recombinant PDI, Di-E-GSSG, 5 μM DTT
Chain of purified human recombinant PDI (rPDI) (P07237 18-508): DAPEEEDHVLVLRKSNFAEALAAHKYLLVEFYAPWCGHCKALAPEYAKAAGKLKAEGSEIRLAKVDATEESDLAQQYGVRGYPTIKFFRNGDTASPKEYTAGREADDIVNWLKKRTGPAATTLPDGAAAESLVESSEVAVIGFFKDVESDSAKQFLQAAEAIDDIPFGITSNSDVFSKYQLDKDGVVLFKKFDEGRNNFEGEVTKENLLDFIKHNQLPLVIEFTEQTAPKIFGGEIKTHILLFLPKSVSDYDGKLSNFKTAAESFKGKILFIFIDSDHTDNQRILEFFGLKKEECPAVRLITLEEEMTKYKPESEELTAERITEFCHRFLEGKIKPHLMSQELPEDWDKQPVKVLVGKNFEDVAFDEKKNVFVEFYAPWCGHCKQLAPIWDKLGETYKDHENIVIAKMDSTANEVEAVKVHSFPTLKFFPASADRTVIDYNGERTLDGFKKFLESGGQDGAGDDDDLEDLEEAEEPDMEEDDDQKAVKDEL
Experimental: (§4) In this assay, a nonfluorescent substrate, dieosin glutathione disulfide (Di-E-GSSG), was reduced into a fluorescent product eosin-glutathione (E-GSH) by platelet surface PDI in the presence of 5 μM dithiothreitol (DTT).

[7] = molecular target: platelet surface PDI (Homo sapiens, UniProt P07237); experiment: Cell surface PDI reductase activity on intact human platelets (Di-E-GSSG assay); conditions: read-out: Surface PDI IC50; intact human platelets, Di-E-GSSG, 5 μM DTT
Chain of platelet surface PDI (P07237 18-508): as above
Experimental: as §4

[8] = tested on: multiple myeloma RPMI8226; experiment: Cell viability, resazurin assay, RPMI8226; conditions: for IC50: Homo sapiens, RPMI-8226, 24 h, read-out: RPMI8226 IC50; for S.I. (EAhy926/RPMI8226), selectivity index: 24 h IC50 ratio
Experimental: as §3

[9] = tested on: washed human platelets; experiment: U46619-induced platelet aggregation; format: cell-based; conditions: Platelet; washed human platelets, U46619 (1 μM)
Experimental: as §1, §2

[10] = tested on: human vascular endothelial EA.hy926 cells; experiment: Cell viability, resazurin assay, EA.hy926; conditions: EA.hy 926, 24 h, read-out: EAhy926 IC50
Experimental: as §3

[11] = 25 ℃, verapamil = 100%, ranitidine = 0%

| SMILES | IC50 [1] [µM] | Permeability (%) [2, 11] [%] | IC50 [3] [µM] | IC50 [4] [µM] | IC50 [5] [µM] | IC50 [6] [µM] | IC50 [7] [µM] | IC50 [8] [µM] | IC50 [9] [µM] | IC50 [10] [µM] | S.I. (EAhy926/RPMI8226), selectivity index [8] | Permeability (%) [2] [%] |
| --- | --- | --- | --- | --- | --- | --- | --- | --- | --- | --- | --- | --- |
| O=C1C=C(SC[C@H]2OC(O)[C@H](O)[C@@H](O)[C@@H]2O)C(=O)c2c(O)cccc21 (mixture of isomers) [Compound 19, 2-(6-Deoxy-6-thio-D-glucose)-8-hydroxynaphthalene-1,4-dione] | > 50 | -0.96 | > 100 | > 20 | > 100 | 3.7 ± 1.22 | 1.17 ± 0.38 | > 20 | > 50 |  |  |  |
| COc1ccccc1SC1=CC(=O)c2cccc(O)c2C1=O [Compound 10, 2-((2-Methoxyphenyl)thio)-8-hydroxynaphthalene-1,4-dione] | 0.71 ± 0.03 | 28.4 | > 100 | > 20 | 17.3 ± 0.9 | 1.34 ± 0.12 | 0.79 ± 0.26 | > 20 | 2.66 ± 0.42 |  |  |  |
| COc1ccc(SC2=CC(=O)c3cccc(O)c3C2=O)cc1OC [Compound 11, 2-((3,4-Dimethoxyphenyl)thio)-8-hydroxynaphthalene-1,4-dione] | 1.58 ± 0.88 | 2.7 | 38.9 ± 4.89 | > 20 | 12.4 ± 1.56 | 14 ± 1.67 | 1.28 ± 0.29 | 2.26 ± 0.07 | 2.43 ± 0.3 | > 20 | >8.8 |  |
| Cc1ccc(SC2=CC(=O)c3cccc(O)c3C2=O)cc1 [Compound 12, 2-(p-Tolylthio)-8-hydroxynaphthalene-1,4-dione] | 0.76 ± 0.02 |  | 25.2 ± 2.58 | > 20 | > 100 | 3.45 ± 0.18 | 1.84 ± 0.05 | 3.83 ± 0.28 | 1.82 ± 0.17 | > 20 | >5.2 | 0.1 |
| CC(C)(C)c1ccc(SC2=CC(=O)c3cccc(O)c3C2=O)cc1 [Compound 13, 2-((4-(tert-Butyl)phenyl)thio)-8-hydroxynaphthalene-1,4-dione] | 0.64 ± 0.05 | 8.5 | 15.1 ± 1.48 | > 20 | > 100 | 1.29 ± 0.3 | 1.5 ± 0.05 | 3.5 ± 0.26 | 1.85 ± 0.17 | > 20 | >5.7 |  |

These reach a lower IC50 [3]. Values come first.

| IC50 [1] [µM] | Permeability (%) [2, 11] [%] | IC50 [3] [µM] | IC50 [4] [µM] | IC50 [5] [µM] | IC50 [6] [µM] | IC50 [7] [µM] | IC50 [8] [µM] | IC50 [9] [µM] | SMILES | IC50 [10] [µM] | S.I. (EAhy926/RPMI8226), selectivity index [8] | Permeability (%) [2] [%] |
| --- | --- | --- | --- | --- | --- | --- | --- | --- | --- | --- | --- | --- |
|  |  | 6.42 ± 0.29 | > 20 | 13 ± 0.29 |  |  | 8.77 ± 0.29 |  | COc1ccc(N2C(=O)/C(=C\c3ccc([N+](=O)[O-])s3)SC2=S)cc1 [CCF642, reference compound] | 5.57 ± 0.25 | 0.64 |  |
| 0.29 ± 0.06 | 80.43 | 6.63 ± 0.93 | 16.8 ± 0.62 | 14.9 ± 0.43 | 1.44 ± 0.08 | 1.37 ± 0.23 | 4.7 ± 0.08 | 1.52 ± 0.08 | COc1ccc(SC2=CC(=O)c3cccc(O)c3C2=O)cc1 [Compound 8, 2-((4-Methoxyphenyl)thio)-8-hydroxynaphthalene-1,4-dione] | 13.9 ± 1.17 | 3.0 |  |
| 0.38 ± 0.13 | 38.9 | 5.57 ± 0.7 | 8.06 ± 0.48 | 13.9 ± 0.53 | 0.71 ± 0.04 | 0.84 ± 0.06 | 0.77 ± 0.05 | 1.6 ± 0.16 | COc1cccc(SC2=CC(=O)c3cccc(O)c3C2=O)c1 [Compound 9, 2-((3-Methoxyphenyl)thio)-8-hydroxynaphthalene-1,4-dione] | 6.89 ± 0.12 | 8.9 |  |
| 0.75 ± 0.14 |  | 6.92 ± 1.1 | 6.4 ± 0.12 | 16.1 ± 0.27 | 1.5 ± 0.25 | 0.77 ± 0.2 | 0.58 ± 0.03 | 1.3 ± 0.35 | O=C1C=C(Sc2ccc(O)cc2)C(=O)c2c(O)cccc21 [Compound 14, 2-((4-Hydroxyphenyl)thio)-8-hydroxynaphthalene-1,4-dione] | 5.69 ± 0.16 | 9.8 |  |
